Literature values in patent publication US10045948B2, “Pramipexole-containing transdermal patch for treatment of neurodegenerative disease” (MEDRX CO., LTD., priority 2014, dated 2018).

Conditions: in vivo

Substance: rotigotine
- Patients with rash and other types of inflammation at the application site: 40-50%
